“Also recorded” adds a separate entry of the source. Where two headings read alike, the source gives them in different places.
Experiments:
OAT1 [1] = target: T1, OAT1 (Homo sapiens, UniProt Q4U2R8); experiment: OAT1 uptake study in ciPTEC-OAT1
T1 sequence (Q4U2R8 1-563): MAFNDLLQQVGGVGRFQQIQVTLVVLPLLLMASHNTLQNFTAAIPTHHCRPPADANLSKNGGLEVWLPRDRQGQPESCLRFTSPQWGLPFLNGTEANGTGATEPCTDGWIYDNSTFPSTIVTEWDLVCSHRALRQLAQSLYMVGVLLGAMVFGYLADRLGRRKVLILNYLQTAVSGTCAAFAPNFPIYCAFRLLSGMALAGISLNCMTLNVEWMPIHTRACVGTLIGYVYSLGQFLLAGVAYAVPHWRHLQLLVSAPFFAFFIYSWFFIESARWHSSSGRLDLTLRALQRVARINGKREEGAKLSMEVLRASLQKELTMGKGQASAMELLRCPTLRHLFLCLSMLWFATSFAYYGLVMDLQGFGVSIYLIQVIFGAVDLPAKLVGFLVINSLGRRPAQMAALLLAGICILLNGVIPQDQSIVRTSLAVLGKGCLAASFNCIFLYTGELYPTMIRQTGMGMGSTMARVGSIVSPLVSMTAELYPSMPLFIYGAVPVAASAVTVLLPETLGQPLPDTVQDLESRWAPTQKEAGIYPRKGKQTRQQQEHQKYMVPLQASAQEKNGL

OAT3 [2] = target: T2, OAT3 (Homo sapiens, UniProt Q8TCC7); experiment: OAT3 uptake study in ciPTEC-OAT3; conditions: for Vb,max OAT3, Active and Passive Uptake: eq 4 fitted to CLint,u; for Vb,max OAT3, Active and Passive Uptake / Vb,max OAT3, Active Uptake Only: mean ± S.D.; for Vb,max OAT3, Active Uptake Only: eq 4 fitted to CLint,u,active
T2 sequence (Q8TCC7 1-542): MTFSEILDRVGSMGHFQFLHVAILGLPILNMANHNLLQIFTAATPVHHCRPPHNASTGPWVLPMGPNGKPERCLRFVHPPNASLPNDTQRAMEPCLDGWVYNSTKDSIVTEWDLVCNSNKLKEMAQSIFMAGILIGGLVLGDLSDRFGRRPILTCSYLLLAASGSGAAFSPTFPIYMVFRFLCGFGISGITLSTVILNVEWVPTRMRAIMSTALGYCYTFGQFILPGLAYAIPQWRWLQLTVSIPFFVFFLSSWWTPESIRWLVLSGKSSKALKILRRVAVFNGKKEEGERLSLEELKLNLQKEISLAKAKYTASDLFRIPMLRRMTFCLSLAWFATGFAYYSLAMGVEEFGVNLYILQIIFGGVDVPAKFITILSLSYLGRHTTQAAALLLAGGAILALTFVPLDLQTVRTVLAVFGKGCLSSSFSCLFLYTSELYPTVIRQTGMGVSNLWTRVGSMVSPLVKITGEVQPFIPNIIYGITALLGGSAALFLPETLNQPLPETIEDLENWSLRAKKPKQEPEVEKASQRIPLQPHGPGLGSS

OAT1 [3] = experiment: Observed in vivo (clinical) renal, secretion and intrinsic secretion clearance; conditions: human, plasma
[4] = as above; conditions: in vivo; for CLint,sec Observed: back-calculated from clinical data
OAT1/3 [5] = experiment: Bottom-up IVIVE of CLint,sec, CLsec and CLr, relative expression factor (REF) approach; design: species or system human; conditions: REF approach
Text: (§1) The relative expression and relative activity factor (REF and RAF) are unitless scalers that account for in vivo versus in vitro differences in the abundance and activity of OAT1/3 and are used for IVIVE of in vitro CLint,u,active. REF was derived from the OAT1/3 expression ratio between the in vivo human kidney cortex to the in vitro ciPTEC-OAT1/3, as shown in eq 7: [drawing 8] 7 Absolute abundance of OAT1 and OAT3 in the human kidney cortex was previously quantified by our group using the filter-aided sample preparation protocol and global proteomic analysis.[44]

human serum albumin = human serum albumin (Homo sapiens, UniProt P02768); experiment: Extent of albumin binding: high throughput equilibrium dialysis (fu,inc, Kd); assay type: in vitro ADME; conditions: mean ± SD; for fu,inc (4%) / fraction unbound at 6 h: equilibrium dialysis 37 °C 6 h; for fraction unbound at 6 h: human
Method: Briefly, cellulose membranes with MWCO of 12–14 kDa were submerged in distilled water for 1 h, followed by 20% ethanol/distilled water for at least 20 min. Prior to the start of the experiment, cellulose membranes were rinsed in distilled water and submerged in blank DPBS for 15 min. The HTDialysis device was assembled according to the manufacturer’s instructions (https://www.htdialysis.com). Blank DPBS was first added to the receiver side of the dialysis membranes, followed by DPBS spiked with HSA and the OAT1/3 substrate to the donor side. Each HSA concentration was tested in triplicates. The HTDialysis device was sealed with an adhesive sealing film and incubated in a water bath at 37 °C for 6 h shaken at 150 rpm. Once the assay was completed, aliquots from both receiver and donor wells were transferred to a 96-well plate and stored at −80 °C until analysis. DPBS spiked with the OAT1/3 substrate from both before and after incubation was stored to assess the recovery and stability of the samples. To prepare the sample for analysis, donor and receiver samples were matrix-matched and quenched with ice-cold acetonitrile containing an internal standard (0.5 μM gemfibrozil or 0.05 μM buspirone).

[6] = in vivo, plasma renal clearance, clinical data; cited from earlier work
[7] = human, in vivo
OAT3 [8] = experiment: clinical; conditions: human
OAT1/3 [9] = experiment: Bottom-up IVIVE of CLint,sec, CLsec and CLr, relative activity factor (RAF) approach; design: species or system human
Text: as §1

[10] = 1% human serum albumin in DPBS, 1% HSA, read-out: fu,inc (1%)
[11] = 4% HSA in DPBS, 4% HSA, read-out: fu,inc (4%)

Sequence of human serum albumin (P02768 25-609): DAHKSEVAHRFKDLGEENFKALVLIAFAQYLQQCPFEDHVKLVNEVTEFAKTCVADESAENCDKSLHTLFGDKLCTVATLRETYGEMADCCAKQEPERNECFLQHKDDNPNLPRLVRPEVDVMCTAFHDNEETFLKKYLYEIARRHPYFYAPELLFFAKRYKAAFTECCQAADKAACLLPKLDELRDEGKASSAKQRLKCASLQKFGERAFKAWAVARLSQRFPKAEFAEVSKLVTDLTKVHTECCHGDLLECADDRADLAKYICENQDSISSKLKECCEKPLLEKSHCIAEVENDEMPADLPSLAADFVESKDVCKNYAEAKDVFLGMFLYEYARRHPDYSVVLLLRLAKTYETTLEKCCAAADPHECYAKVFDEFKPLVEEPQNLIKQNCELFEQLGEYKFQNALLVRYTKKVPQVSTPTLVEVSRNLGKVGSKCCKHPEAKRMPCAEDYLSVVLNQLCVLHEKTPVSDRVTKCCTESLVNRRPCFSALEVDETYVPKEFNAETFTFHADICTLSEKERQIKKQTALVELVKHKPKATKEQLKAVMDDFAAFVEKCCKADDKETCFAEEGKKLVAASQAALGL

Row | Compound | CLint,sec Observed [4] | CLint,sec Predicted 0% HSA (OAT1/3 [5]) | CLint,sec Predicted 1% HSA (OAT1/3 [5]) | CLint,sec Predicted 4% HSA (OAT1/3 [5]) | CLsec Predicted 0% HSA (OAT1/3 [5]) | CLsec Predicted 1% HSA (OAT1/3 [5]) | CLsec Predicted 4% HSA (OAT1/3 [5]) | fu,inc (4%) (human serum albumin; 4% HSA) | fraction unbound at 6 h (human serum albumin; [10]) | fraction unbound at 6 h (human serum albumin; [11]) | CLr Observed [6] | Vb,max OAT3, Active and Passive Uptake (OAT3 [2]) | Vb,max OAT3, Active Uptake Only (OAT3 [2]) | CLsec Observed [7] | further results
1 | Nc1ncnc2c1ncn2CCOCP(=O)(O)O [adefovir] | 10.8 L/h | 42.9 L/h | 57.8 L/h | 44.7 L/h | 21.3 L/h | 25.1 L/h | 21.8 L/h | 0.977 ± 0.062 | 0.999 ± 0.019 | > 0.95 | 14.2 L/h | – | – | – | Effect of HSA on OAT1 uptake / CLint,u,active (OAT1 [1]; 1 and 4% HSA vs control): no effect; also recorded: did not show any significant change; also recorded: absence of any change; Vb,max OAT1, Active and Passive Uptake (OAT1 [1]; eq 4 fitted to CLint,u, mean ± S.D.): -1083 ± 194000 pmol/min/mg; Vb,max OAT1, Active Uptake Only (OAT1 [1]; eq 4 fitted to CLint,u,active, Kd,m fixed from OAT3 data, mean ± S.D.): 3055 ± 188000 pmol/min/mg; OAT3 substrate status (uptake in ciPTEC-OAT3) (OAT3 [2]; control vs probenecid 300 μM): not an OAT3 substrate; microsomal CLint (OAT1 [3]): 35.2 µL/min/mg; CLsec Observed ([4]; plasma secretion clearance): 7.82 L/h
2 | CCC(CC)O[C@@H]1C=C(C(=O)O)C[C@H](N)[C@H]1NC(C)=O [oseltamivir carboxylate] | – | – | – | – | – | – | – | 0.983 ± 0.018 | 0.973 ± 0.039 | > 0.95 | 15.6 L/h | -1150 ± 2660 pmol/min/mg | -1120 ± 2640 pmol/min/mg | 8.29 L/h | Effect of HSA on OAT3 uptake / CLint,u,active (OAT3 [2]; 1 and 4% HSA vs control): no effect; also recorded: did not show any significant change; also recorded: absence of any change; CLint,sec Observed [7]: 11.7 L/h; microsomal CLint (OAT3 [8]): 36.2 µL/min/mg
3 | O=C(NC[C@H]1CN(c2ccc(N3CCOCC3=O)cc2)C(=O)O1)c1ccc(Cl)s1 [rivaroxaban] | 41.2 L/h | 6.78 L/h | 41.7 L/h | 67.0 L/h | 0.48 L/h | 2.79 L/h | 4.32 L/h | – | 0.217 ± 0.006 | 0.096 ± 0.007 | 3.17 L/h | 723 ± 216 pmol/min/mg | 714 ± 201 pmol/min/mg | 2.63 L/h | OAT1 substrate status (uptake in ciPTEC-OAT1) (OAT1 [1]; control vs probenecid 300 μM): did not show any appreciable uptake; ratio of CLint,u,active (R) (HSA/control) 1% (OAT3 [2]; OAT3, 1% HSA vs control): 6.44 ± 2.61; ratio of CLint,u,active (R) (HSA/control) 4% (OAT3 [2]; OAT3, 4% HSA vs control): 10.0 ± 2.2; Kd (human serum albumin; estimated using eq 3 from measured fu,inc): 55 ± 4.3 µM; CLint,sec Predicted 0% HSA (OAT1/3 [9]): 34.1 L/h; CLint,sec Predicted 1% HSA (OAT1/3 [9]): 210 L/h; CLint,sec Predicted 4% HSA (OAT1/3 [9]): 337.7 L/h; CLsec Predicted 0% HSA (OAT1/3 [9]): 2.32 L/h; CLsec Predicted 1% HSA (OAT1/3 [9]): 11.1 L/h; CLsec Predicted 4% HSA (OAT1/3 [9]): 15.4 L/h

Reference: article PMC11372837, “Albumin-Mediated Drug Uptake by Organic Anion Transporter 1/3 Is Real: Implications for the Prediction of Active Renal Secretion Clearance” (Molecular Pharmaceutics, 2024)
